# In ChEMBL document CHEMBL1136391, “Synthesis and activity of a C-8 keto pleuromutilin derivative” (2003):
# What was measured:
# Format in all cases: functional
# Haemophilus influenzae = experiment: Minimum inhibitory concentration against Haemophilus influenzae / Pen+
# Moraxella catarrhalis = experiment: Minimum inhibitory concentration against Moraxella catarrhalis / Pen+
# Staphylococcus aureus = experiment: Minimum inhibitory concentration against Staphylococcus aureus / Homo MR
# Streptococcus pneumoniae = experiment: Minimum inhibitory concentration against Streptococcus pneumoniae / Penicillin Resistant
SMILES,MIC (Haemophilus influenzae) [µg/mL],MIC (Moraxella catarrhalis) [µg/mL],MIC (Staphylococcus aureus) [µg/mL],MIC (Streptococcus pneumoniae) [µg/mL]
C=C[C@]1(C)C[C@@H](OC(=O)Nc2ccc(OC)cc2)[C@]2(C)C(C)CC[C@]3(CCC(=O)[C@H]32)[C@@H](C)[C@@H]1O (stereo partly drawn),4,0.125,0.003,0.003
C=C[C@]1(C)C[C@@H](OC(=O)Nc2ccc(OC)cc2)[C@]2(C)C(C)CC(=O)[C@]3(CCC(=O)[C@H]32)[C@@H](C)[C@@H]1O (stereo partly drawn),64,64,32,32
